How the values were obtained:
Assay in all cases: Survival of in vitro raised shoots on menthol containing MS basal medium
Format in all cases: cell-based
[1] = system: regenerated shoots of Mentha arvensis variety Kalka
Description: (§1) The plant varieties analysed were Himalaya, Shivalik, Gomti, MAS-1, Kosi, Kalka of Mentha arvensis L. (2n=96). The suckers of these plant varieties were obtained from CIMAP's national gene bank for medicinal and aromatic plants for planting. The explant materials were collected from the field grown plants and surface sterilized by washing sequentially with 2% detergent, distilled water containing a few drops of Savlon (Johnson and Johnson, India), 0.1% acidified mercuric chloride and autoclaved distilled water before inoculation. About 1 cm long internodal pieces were inoculated in the MS medium (Murasighe and Skoog, 1962) containing vitamins, 100 mg l^−1 myo-inositol 3% wv^−1 sucrose, 1.5% wv^−1 agar (Difco), 0.5 .μg ml^−1 of an auxin, (NAA, 1-napthalene acetic acid) and 5 μg ml^−1 of a cytokinin (BAP, benzyl aminopurine) (Shasany et al, 1998). The cultures were grown at 25±2° C. and 400 to 600 lux light intensity with 16 h photoperiod. The regenerated shoots were separated 12 weeks after the explant inoculation for rooting and/or testing menthol tolerance.
(§2) The regenerated shoots (3-4 cm long, containing the apical bud and 2-3 nodes) separated after 12 weeks, were inoculated into MS basal medium with or without menthol (0 to 100 μg ml^−1). Concentration of menthol in each treatment was stepped up by 10 μg in a sequential manner. On each kind of these media, 5 independently regenerated shoots were inoculated per flask; 4 flasks were inoculated per replication and each treatment was replicated 5 times, making the number of flasks to 20 and number of explants to 100 for each concentration of menthol. The experiment was conducted in the completely randomized design (CRD) fashion. Cultures were incubated and maintained at 25±2° C. and 400-600 lux light intensity with 16-hour photoperiod. The wilting response and lethality in explants was recorded every 24 hours over a period of one week.

[2] = system: regenerated shoots of Mentha arvensis variety MAS-1
Description: as §1, §2

[3] = system: regenerated shoots of Mentha arvensis variety Kosi
Description: as §1, §2

[4] = 100-ppm menthol, twenty-four hours after incubation
[5] = menthol 10 μg ml^−1, 20 shoots tested per replication
[6] = menthol 20 μg ml^−1, 20 shoots tested per replication
[7] = menthol 30 μg ml^−1, 20 shoots tested per replication
[8] = menthol 40 μg ml^−1, 20 shoots tested per replication
[9] = menthol 50 μg ml^−1, 20 shoots tested per replication
[10] = menthol 60 μg ml^−1, 20 shoots tested per replication
[11] = menthol 70 μg ml^−1, 20 shoots tested per replication
[12] = menthol 80 μg ml^−1, 20 shoots tested per replication
[13] = menthol 90 μg ml^−1, 20 shoots tested per replication
[14] = menthol 100 μg ml^−1, 20 shoots tested per replication

## CC1CCC(C(C)C)C(O)C1 (stereo not shown) [menthol]
[1]; [4]
  lethality: 98%
[1]; menthol 10 μg ml^−1
  Survival after 7 days Number: 20.0 ± 0.00
[1]; [5]
  Survival after 24 hours Number: 20.0 ± 0.00
[1]; menthol 20 μg ml^−1
  Survival after 7 days Number: 20.0 ± 0.00
[1]; [6]
  Survival after 24 hours Number: 20.0 ± 0.00
[1]; menthol 30 μg ml^−1
  Survival after 7 days Number: 20.0 ± 0.00
[1]; [7]
  Survival after 24 hours Number: 20.0 ± 0.00
[1]; menthol 40 μg ml^−1
  Survival after 7 days Number: 17.6 ± 0.66
[1]; [8]
  Survival after 24 hours Number: 20.0 ± 0.00
[1]; menthol 50 μg ml^−1
  Survival after 7 days Number: 13.8 ± 0.86
[1]; [9]
  Survival after 24 hours Number: 19.4 ± 0.52
[1]; menthol 60 μg ml^−1
  Survival after 7 days Number: 10.0 ± 0.91
[1]; [10]
  Survival after 24 hours Number: 17.0 ± 0.41
[1]; menthol 70 μg ml^−1
  Survival after 7 days Number: 4.0 ± 0.81
[1]; [11]
  Survival after 24 hours Number: 11.0 ± 0.58
[1]; menthol 80 μg ml^−1
  Survival after 7 days Number: 0.0 ± 0.00
[1]; [12]
  Survival after 24 hours Number: 6.0 ± 0.82
[1]; menthol 90 μg ml^−1
  Survival after 7 days Number: 0.0 ± 0.00
[1]; [13]
  Survival after 24 hours Number: 3.0 ± 0.36
[1]; menthol 100 μg ml^−1
  Survival after 7 days Number: 0.0 ± 0.00
[1]; [14]
  Survival after 24 hours Number: 0.4 ± 0.26
[2]; 80 ppm menthol, after 7 days of incubation
  survival: 2%
[2]; [4]
  lethality: 98%
[2]; menthol 10 μg ml^−1
  Survival after 7 days Number: 20.0 ± 0.00
[2]; [5]
  Survival after 24 hours Number: 20.0 ± 0.00
[2]; menthol 20 μg ml^−1
  Survival after 7 days Number: 20.0 ± 0.00
[2]; [6]
  Survival after 24 hours Number: 20.0 ± 0.00
[2]; menthol 30 μg ml^−1
  Survival after 7 days Number: 20.0 ± 0.00
[2]; [7]
  Survival after 24 hours Number: 20.0 ± 0.00
[2]; menthol 40 μg ml^−1
  Survival after 7 days Number: 18.0 ± 0.57
[2]; [8]
  Survival after 24 hours Number: 20.0 ± 0.00
[2]; menthol 50 μg ml^−1
  Survival after 7 days Number: 13.4 ± 0.66
[2]; [9]
  Survival after 24 hours Number: 19.0 ± 0.57
[2]; menthol 60 μg ml^−1
  Survival after 7 days Number: 10.0 ± 0.91
[2]; [10]
  Survival after 24 hours Number: 16.0 ± 0.57
[2]; menthol 70 μg ml^−1
  Survival after 7 days Number: 3.0 ± 0.58
[2]; [11]
  Survival after 24 hours Number: 10.0 ± 0.82
[2]; menthol 80 μg ml^−1
  Survival after 7 days Number: 0.4 ± 0.32
[2]; [12]
  Survival after 24 hours Number: 5.0 ± 0.41
[2]; menthol 90 μg ml^−1
  Survival after 7 days Number: 0.0 ± 0.00
[2]; [13]
  Survival after 24 hours Number: 3.0 ± 0.32
[2]; menthol 100 μg ml^−1
  Survival after 7 days Number: 0.0 ± 0.00
[2]; [14]
  Survival after 24 hours Number: 0.4 ± 0.32
[3]; [4]
  lethality: 99%
[3]; menthol 10 μg ml^−1
  Survival after 7 days Number: 20.0 ± 0.00
[3]; [5]
  Survival after 24 hours Number: 20.0 ± 0.00
[3]; menthol 20 μg ml^−1
  Survival after 7 days Number: 20.0 ± 0.00
[3]; [6]
  Survival after 24 hours Number: 20.0 ± 0.00
[3]; menthol 30 μg ml^−1
  Survival after 7 days Number: 20.0 ± 0.00
[3]; [7]
  Survival after 24 hours Number: 20.0 ± 0.00
[3]; menthol 40 μg ml^−1
  Survival after 7 days Number: 18.0 ± 0.41
[3]; [8]
  Survival after 24 hours Number: 20.0 ± 0.00
[3]; menthol 50 μg ml^−1
  Survival after 7 days Number: 10.0 ± 0.52
[3]; [9]
  Survival after 24 hours Number: 17.0 ± 0.41
[3]; menthol 60 μg ml^−1
  Survival after 7 days Number: 8.0 ± 0.82
[3]; [10]
  Survival after 24 hours Number: 15.0 ± 0.91
[3]; menthol 70 μg ml^−1
  Survival after 7 days Number: 1.0 ± 0.40
[3]; [11]
  Survival after 24 hours Number: 7.0 ± 0.82
[3]; menthol 80 μg ml^−1
  Survival after 7 days Number: 0.0 ± 0.00
[3]; [12]
  Survival after 24 hours Number: 3.0 ± 0.41
[3]; menthol 90 μg ml^−1
  Survival after 7 days Number: 0.0 ± 0.00
[3]; [13]
  Survival after 24 hours Number: 2.0 ± 0.32
[3]; menthol 100 μg ml^−1
  Survival after 7 days Number: 0.0 ± 0.00
[3]; [14]
  Survival after 24 hours Number: 0.2 ± 0.32
